Calls of active or inactive are those of the source. The rule behind the calls is not given here.
How the values were obtained:
[1] = tested on: Mus musculus; assay: Toxicity in ip dosed mouse; assay type: organism-based; details: in vivo
[2] = organism: Rattus norvegicus; assay: Toxicity in Wistar rat; assay type: organism-based; details: in vivo
[3] = organism: Rattus norvegicus; assay: Antitumor activity against aflatoxin B1-induced tumor in Wistar rat at 30 ug for 8 weeks; assay type: functional, organism-based

SMILES	LD100 [1] [mg/kg]	LD100 [2] [mg/kg]	Activity [3]
C=C1[C@H](O)[C@]23CC[C@H]4C(C(=O)O)(C(=O)O)C[C@@H](O[C@@H]5O[C@H](CO)[C@@H](O[C@@H]6O[C@@H](C)[C@H](O)[C@@H](O)[C@H]6O)[C@H](OC(=O)CCc6ccccc6)[C@H]5NC(=O)CC(C)C)C[C@]4(C)[C@H]2CC[C@@]1(O)C3	1	1	–
C=C1[C@H](O)[C@]23CC[C@H]4C(C(=O)O)(C(=O)O)C[C@@H](O[C@@H]5O[C@H](CO)[C@@H](O)[C@H](OC(=O)CCc6ccccc6)[C@H]5NC(=O)CC(C)C)C[C@]4(C)[C@H]2CC[C@@]1(O)C3 [WEDELOSIDE]	1	1	Active

Reference: ChEMBL document CHEMBL1151345, “Isolation of a new potential antitumor compound from Wedelia asperrima” (J Nat Prod, 1980)
